According to PubChem BioAssay (NCI):
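Assay format: 96-well plates, 48-hour exposure. GI50 marks 50% less growth. TGI is the concentration that stops growth completely.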

What was measured:
Test in all cases: inhibition of tumour cell growth, NCI panel, 48 h
786-0 renal = tested on: 786-0 renal
A498 renal = tested on: A498 renal
A549 NSCLC = tested on: A549 NSCLC
ACHN renal = tested on: ACHN renal
BT-549 breast = tested on: BT-549 breast
CAKI-1 renal = tested on: CAKI-1 renal
CCRF-CEM leukemia = tested on: CCRF-CEM leukemia
COLO 205 colon = tested on: COLO 205 colon
DU-145 prostate = tested on: DU-145 prostate
EKVX NSCLC = tested on: EKVX NSCLC
HCC-2998 colon = tested on: HCC-2998 colon
HCT-116 colon = tested on: HCT-116 colon
HCT-15 colon = tested on: HCT-15 colon
HL-60(TB) leukemia = tested on: HL-60(TB) leukemia
HOP-62 NSCLC = tested on: HOP-62 NSCLC
HOP-92 NSCLC = tested on: HOP-92 NSCLC
HS 578T breast = tested on: HS 578T breast
HT29 colon = tested on: HT29 colon
IGROV1 ovarian = tested on: IGROV1 ovarian
K-562 leukemia = tested on: K-562 leukemia
KM12 colon = tested on: KM12 colon
LOX IMVI melanoma = tested on: LOX IMVI melanoma
M14 melanoma = tested on: M14 melanoma
MALME-3M melanoma = tested on: MALME-3M melanoma
MCF7 breast = tested on: MCF7 breast
MDA-MB-231 breast = tested on: MDA-MB-231 breast
MDA-MB-435 = tested on: MDA-MB-435
MOLT-4 leukemia = tested on: MOLT-4 leukemia
NCI-H226 lung = tested on: NCI-H226 lung
NCI-H460 lung = tested on: NCI-H460 lung
NCI-H522 lung = tested on: NCI-H522 lung
NCI/ADR-RES ovarian = tested on: NCI/ADR-RES ovarian
OVCAR-3 ovarian = tested on: OVCAR-3 ovarian
OVCAR-4 ovarian = tested on: OVCAR-4 ovarian
OVCAR-5 ovarian = tested on: OVCAR-5 ovarian
OVCAR-8 ovarian = tested on: OVCAR-8 ovarian
PC-3 prostate = tested on: PC-3 prostate
RPMI-8226 leukemia = tested on: RPMI-8226 leukemia
RXF 393 renal = tested on: RXF 393 renal
SF-268 CNS = tested on: SF-268 CNS
SF-295 CNS = tested on: SF-295 CNS
SF-539 CNS = tested on: SF-539 CNS
SK-MEL-2 melanoma = tested on: SK-MEL-2 melanoma
SK-MEL-28 melanoma = tested on: SK-MEL-28 melanoma
SK-MEL-5 melanoma = tested on: SK-MEL-5 melanoma
SK-OV-3 ovarian = tested on: SK-OV-3 ovarian
SN12C renal = tested on: SN12C renal
SNB-19 CNS = tested on: SNB-19 CNS
SNB-75 CNS = tested on: SNB-75 CNS
SR leukemia = tested on: SR leukemia
SW-620 colon = tested on: SW-620 colon
T-47D breast = tested on: T-47D breast
TK-10 renal = tested on: TK-10 renal
U251 CNS = tested on: U251 CNS
UACC-257 melanoma = tested on: UACC-257 melanoma
UACC-62 melanoma = tested on: UACC-62 melanoma
UO-31 renal = tested on: UO-31 renal

In the case of `CCCC(=O)NC(c1cccnc1)c1cc(C(C)(C)C)c2cccnc2c1O` (centres undefined), the GI50 (786-0 renal) is reported as 4.61 µM, the TGI (786-0 renal) is reported as over 100 µM and the GI50 (A498 renal) is reported as over 100 µM. For the same molecule, the TGI (A498 renal) was over 100 µM, the GI50 (A549 NSCLC) was 5.68 µM and the TGI (A549 NSCLC) was over 100 µM. It also gave a GI50 (ACHN renal) of 3.62 µM, a TGI (ACHN renal) of over 100 µM and a GI50 (BT-549 breast) of 5.06 µM. It also gave a TGI (BT-549 breast) of over 100 µM, a GI50 (CAKI-1 renal) of 3.19 µM and a TGI (CAKI-1 renal) of over 100 µM. It also gave a GI50 (CCRF-CEM leukemia) of 2.63 µM, a TGI (CCRF-CEM leukemia) of over 100 µM and a GI50 (COLO 205 colon) of 3.25 µM. The TGI (COLO 205 colon) was over 100 µM, the GI50 (DU-145 prostate) was 11.3 µM and the TGI (DU-145 prostate) was over 100 µM. It also gave a GI50 (EKVX NSCLC) of 5.19 µM, a TGI (EKVX NSCLC) of over 100 µM and a GI50 (HCC-2998 colon) of 7.41 µM. The TGI (HCC-2998 colon) was over 100 µM, the GI50 (HCT-116 colon) was 3.74 µM and the TGI (HCT-116 colon) was over 100 µM. For the same molecule, the GI50 (HCT-15 colon) was 3.24 µM, the TGI (HCT-15 colon) was over 100 µM and the GI50 (HL-60(TB) leukemia) was 2.86 µM. It also gave a TGI (HL-60(TB) leukemia) of 21.1 µM, a GI50 (HOP-62 NSCLC) of 4.15 µM and a TGI (HOP-62 NSCLC) of over 100 µM. For the same molecule, the GI50 (HOP-92 NSCLC) was 1.53 µM, the TGI (HOP-92 NSCLC) was 16.2 µM and the GI50 (HS 578T breast) was 7.31 µM. The TGI (HS 578T breast) was over 100 µM, the GI50 (HT29 colon) was 4.32 µM and the TGI (HT29 colon) was over 100 µM. The GI50 (IGROV1 ovarian) was 3.7 µM, the TGI (IGROV1 ovarian) was over 100 µM and the GI50 (K-562 leukemia) was 3.45 µM. It also gave a TGI (K-562 leukemia) of over 100 µM, a GI50 (KM12 colon) of 6.8 µM and a TGI (KM12 colon) of over 100 µM. It also gave a GI50 (LOX IMVI melanoma) of 3.78 µM, a TGI (LOX IMVI melanoma) of over 100 µM and a GI50 (M14 melanoma) of 3.91 µM. It also gave a TGI (M14 melanoma) of 44 µM, a GI50 (MALME-3M melanoma) of 10.6 µM and a TGI (MALME-3M melanoma) of over 100 µM. For the same molecule, the GI50 (MCF7 breast) was 2.97 µM, the TGI (MCF7 breast) was over 100 µM and the GI50 (MDA-MB-231 breast) was 6.3 µM. It also gave a TGI (MDA-MB-231 breast) of over 100 µM, a GI50 (MDA-MB-435) of 6.94 µM and a TGI (MDA-MB-435) of over 100 µM. It also gave a GI50 (MOLT-4 leukemia) of 3.53 µM, a TGI (MOLT-4 leukemia) of over 100 µM and a GI50 (NCI-H226 lung) of 3.75 µM. The TGI (NCI-H226 lung) was 83.1 µM, the GI50 (NCI-H460 lung) was 3.89 µM and the TGI (NCI-H460 lung) was over 100 µM. It also gave a GI50 (NCI-H522 lung) of 2.78 µM, a TGI (NCI-H522 lung) of 20.4 µM and a GI50 (NCI/ADR-RES ovarian) of 2.54 µM. For the same molecule, the TGI (NCI/ADR-RES ovarian) was over 100 µM, the GI50 (OVCAR-3 ovarian) was 3.98 µM and the TGI (OVCAR-3 ovarian) was over 100 µM. It also gave a GI50 (OVCAR-4 ovarian) of 3.82 µM, a TGI (OVCAR-4 ovarian) of over 100 µM and a GI50 (OVCAR-5 ovarian) of 6.96 µM. The TGI (OVCAR-5 ovarian) was over 100 µM, the GI50 (OVCAR-8 ovarian) was 4 µM and the TGI (OVCAR-8 ovarian) was over 100 µM. For the same molecule, the GI50 (PC-3 prostate) was 4.39 µM, the TGI (PC-3 prostate) was over 100 µM and the GI50 (RPMI-8226 leukemia) was 4.35 µM. It also gave a TGI (RPMI-8226 leukemia) of over 100 µM, a GI50 (RXF 393 renal) of 4.31 µM and a TGI (RXF 393 renal) of over 100 µM. It also gave a GI50 (SF-268 CNS) of 5.11 µM, a TGI (SF-268 CNS) of over 100 µM and a GI50 (SF-295 CNS) of 4.24 µM. For the same molecule, the TGI (SF-295 CNS) was over 100 µM, the GI50 (SF-539 CNS) was 4.37 µM and the TGI (SF-539 CNS) was over 100 µM. The GI50 (SK-MEL-2 melanoma) was 6.7 µM, the TGI (SK-MEL-2 melanoma) was over 100 µM and the GI50 (SK-MEL-28 melanoma) was 4.86 µM. It also gave a TGI (SK-MEL-28 melanoma) of over 100 µM, a GI50 (SK-MEL-5 melanoma) of 13.7 µM and a TGI (SK-MEL-5 melanoma) of 48.4 µM. It also gave a GI50 (SK-OV-3 ovarian) of 3.46 µM, a TGI (SK-OV-3 ovarian) of 71.7 µM and a GI50 (SN12C renal) of 7.13 µM. For the same molecule, the TGI (SN12C renal) was over 100 µM, the GI50 (SNB-19 CNS) was 8.15 µM and the TGI (SNB-19 CNS) was over 100 µM. For the same molecule, the GI50 (SNB-75 CNS) was 2.51 µM, the TGI (SNB-75 CNS) was 16.4 µM and the GI50 (SR leukemia) was 3.69 µM. For the same molecule, the TGI (SR leukemia) was over 100 µM, the GI50 (SW-620 colon) was 6.07 µM and the TGI (SW-620 colon) was over 100 µM. It also gave a GI50 (T-47D breast) of 3.59 µM, a TGI (T-47D breast) of over 100 µM and a GI50 (TK-10 renal) of 5.48 µM. For the same molecule, the TGI (TK-10 renal) was over 100 µM, the GI50 (U251 CNS) was 4.12 µM and the TGI (U251 CNS) was over 100 µM. It also gave a GI50 (UACC-257 melanoma) of 3.82 µM, a TGI (UACC-257 melanoma) of 66.4 µM and a GI50 (UACC-62 melanoma) of 3.24 µM. It also gave a TGI (UACC-62 melanoma) of 19.6 µM, a GI50 (UO-31 renal) of 2.22 µM and a TGI (UO-31 renal) of over 100 µM.
